Experimental data as given in article PMC9098912, “Molecular basis for inhibiting human glucose transporters by exofacial inhibitors” (Nature Communications, 2022).
Positions count from the first letter of the chain named. Entries after “also recorded” stand apart in the source; their conditions may differ.

What was measured:
GLUT1 = molecular target: T1, GLUT1 (Homo sapiens, UniProt P11166, N45T); assay: Microscale thermophoresis (MST) binding assay; details: for Figure 2c: MST binding curve, Mean: log[SA47]
T1 construct: made in house
T1 sequence (P11166 1-492 N45T): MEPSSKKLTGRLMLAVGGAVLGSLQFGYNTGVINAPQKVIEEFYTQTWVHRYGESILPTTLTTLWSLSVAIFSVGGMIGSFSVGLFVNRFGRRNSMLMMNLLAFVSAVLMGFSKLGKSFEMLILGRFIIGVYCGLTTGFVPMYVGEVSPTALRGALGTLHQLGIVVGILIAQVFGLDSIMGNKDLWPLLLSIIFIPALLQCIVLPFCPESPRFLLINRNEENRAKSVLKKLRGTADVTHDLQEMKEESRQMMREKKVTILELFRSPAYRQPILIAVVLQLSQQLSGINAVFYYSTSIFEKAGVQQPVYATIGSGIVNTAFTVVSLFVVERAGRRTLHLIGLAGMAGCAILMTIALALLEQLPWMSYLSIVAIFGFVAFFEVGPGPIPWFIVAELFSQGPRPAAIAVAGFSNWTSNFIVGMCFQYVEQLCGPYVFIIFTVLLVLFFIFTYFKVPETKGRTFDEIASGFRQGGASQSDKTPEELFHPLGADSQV
Protocol: (§1) All mutants were generated by standard PCR-based strategy.
(§2) Inhibitors with serial dilutions were mixed with indicated protein. […] MST analyses were conducted on a Monolith NT. […] The MST data was analyzed by Monolith NT.115.

WT GLUT3 = molecular target: T2, WT GLUT3 (Homo sapiens, UniProt P11169, N43T); assay: Microscale thermophoresis (MST) binding assay; set-up: Figure 1e middle: MST binding curve, Mean / Figure 1e right: MST binding curve, Mean / Figure 2c: MST binding curve, Mean: unit not given here; details: for Figure 2c: MST binding curve, Mean: GLUT3, log[SA47]
T2 construct: His10 (N); made in house; host or cells: Sf9 insect cells (baculovirus)
T2 sequence (P11169 1-496 N43T): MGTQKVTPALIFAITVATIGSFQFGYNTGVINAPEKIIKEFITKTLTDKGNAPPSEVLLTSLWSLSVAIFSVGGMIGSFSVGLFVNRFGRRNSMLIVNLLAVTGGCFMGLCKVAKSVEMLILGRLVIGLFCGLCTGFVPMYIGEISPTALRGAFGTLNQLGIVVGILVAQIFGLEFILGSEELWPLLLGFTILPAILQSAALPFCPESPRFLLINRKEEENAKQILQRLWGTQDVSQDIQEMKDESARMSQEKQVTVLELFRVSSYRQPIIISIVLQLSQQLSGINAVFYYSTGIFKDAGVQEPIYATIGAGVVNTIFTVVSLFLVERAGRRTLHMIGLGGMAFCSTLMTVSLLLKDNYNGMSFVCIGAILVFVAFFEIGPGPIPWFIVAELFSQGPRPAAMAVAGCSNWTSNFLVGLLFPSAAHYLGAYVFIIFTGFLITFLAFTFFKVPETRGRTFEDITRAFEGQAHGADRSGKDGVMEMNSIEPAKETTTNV
Protocol: as §1, §2

[1] = molecular target: T3, GLUT3exo (GLUT3 S64W and I305W) (Homo sapiens, UniProt P11169, I305W/N43T/S64W); assay: biochemical; assay type: binding; details: for Figure 2c: MST binding curve, Mean: GLUT3 dTrp mutant, log[SA47]
T3 construct: His10 (N); made in house; host or cells: Sf9 insect cells (baculovirus)
Protocol: Following the same principle for the engineering of XylE-WW, we introduced two Trp substitutions, S64W and I305W, on the extracellular segments of TM2 and TM8 of GLUT3, respectively. This variant will be referred to as GLUT3exo hereafter (Fig. 1a). The two bulky substituents were expected to trap GLUT3 in an outward-facing conformation.
as §1, §2

GLUT3 S71A = molecular target: T4, GLUT3 S71A (Homo sapiens, UniProt P11169, N43T/S71A); assay: biochemical; assay type: binding
T4 construct: His10 (N); made in house; host or cells: Sf9 insect cells (baculovirus)
Protocol: as §1, §2

GLUT3 T28A = molecular target: T5, GLUT3 T28A (Homo sapiens, UniProt P11169, N43T/T28A); assay: Binding of SA47 to GLUT3 variant; details: single point mutation T28A
T5 construct: His10 (N); made in house; host or cells: Sf9 insect cells (baculovirus)
T5 sequence (P11169 1-496 T28A/N43T): T2 sequence (P11169 1-496 N43T) with T28A

Water solubility = assay type: physicochemical; details: can only be applied up to 160 μM

T4 sequence (P11169 whole entry N43T/S71A): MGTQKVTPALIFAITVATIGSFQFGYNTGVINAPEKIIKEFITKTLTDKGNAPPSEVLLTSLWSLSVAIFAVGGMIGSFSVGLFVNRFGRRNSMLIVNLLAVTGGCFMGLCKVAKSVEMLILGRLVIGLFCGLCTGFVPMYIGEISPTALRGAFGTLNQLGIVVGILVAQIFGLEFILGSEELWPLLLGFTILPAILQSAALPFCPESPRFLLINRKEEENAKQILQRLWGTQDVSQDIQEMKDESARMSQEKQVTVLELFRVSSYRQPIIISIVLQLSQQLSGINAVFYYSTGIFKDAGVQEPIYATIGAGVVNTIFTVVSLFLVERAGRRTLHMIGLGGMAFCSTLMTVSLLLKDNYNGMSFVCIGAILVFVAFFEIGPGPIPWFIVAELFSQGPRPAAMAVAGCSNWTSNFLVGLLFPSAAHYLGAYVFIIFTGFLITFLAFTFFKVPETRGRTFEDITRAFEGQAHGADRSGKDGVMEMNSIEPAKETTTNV
T3 sequence (P11169 whole entry N43T/S64W/I305W): as the sequence (P11169 whole entry N43T/S71A) above, with S64W, A71S, I305W counted along it

COC(=O)CCNCc1ccccc1-n1ncc2c(N3CCN(c4cc(F)ccc4OC)CC3)ncnc21 [SA47]
Kd (GLUT1): 310 ± 58.2 nM | Figure 2c: MST binding curve, Mean (GLUT1; M -4.90309): 102.821 | Figure 2c: MST binding curve, Mean (GLUT1; M -5.20412): 94.0406 | Figure 2c: MST binding curve, Mean (GLUT1; M -5.50515): 85.0371 | Figure 2c: MST binding curve, Mean (GLUT1; M -5.80618): 78.9623 | Figure 2c: MST binding curve, Mean (GLUT1; M -6.10721): 63.517 | Figure 2c: MST binding curve, Mean (GLUT1; M -6.40824): 44.2639 | Figure 2c: MST binding curve, Mean (GLUT1; M -6.70927): 30.0958 | Figure 2c: MST binding curve, Mean (GLUT1; M -7.0103): 11.0052 | Figure 2c: MST binding curve, Mean (GLUT1; M -7.31133): 3.8567 | Figure 2c: MST binding curve, Mean (GLUT1; M -7.61236): 3.527 | Figure 2c: MST binding curve, Mean (GLUT1; M -7.91339): -1.6488 | Figure 2c: MST binding curve, Mean (GLUT1; M -8.21442): -3.8284 | Figure 2c: MST binding curve, Mean (GLUT1; M -8.51545): 7.0621 | Figure 2c: MST binding curve, Mean (GLUT1; M -8.81648): 2.3819 | Figure 2c: MST binding curve, Mean (WT GLUT3; M -4.30103): 93.1623 | Figure 2c: MST binding curve, Mean (WT GLUT3; M -4.60206): 97.5688 | Figure 2c: MST binding curve, Mean (WT GLUT3; M -4.90309): 103.147 | Figure 2c: MST binding curve, Mean (WT GLUT3; M -5.20412): 93.0436 | Figure 2c: MST binding curve, Mean (WT GLUT3; M -5.50515): 92.2406 | Figure 2c: MST binding curve, Mean (WT GLUT3; M -5.80618): 84.0843 | Figure 2c: MST binding curve, Mean (WT GLUT3; M -6.10721): 63.9676 | Figure 2c: MST binding curve, Mean (WT GLUT3; M -6.40824): 36.3211 | Figure 2c: MST binding curve, Mean (WT GLUT3; M -7.0103): 13.9692 | Figure 2c: MST binding curve, Mean (WT GLUT3; M -7.31133): 8.298 | Figure 2c: MST binding curve, Mean (WT GLUT3; M -7.61236): 1.1474 | Figure 2c: MST binding curve, Mean (WT GLUT3; M -7.91339): 0.7084 | Figure 2c: MST binding curve, Mean (WT GLUT3; M -8.21442): 2.7164 | Figure 2c: MST binding curve, Mean (WT GLUT3; M -8.51545): 2.4811 | Figure 2c: MST binding curve, Mean (WT GLUT3; M -8.81648): 1.1039 | Kd (WT GLUT3; WT GLUT3): 317 ± 47.2 nM | Kd [1]: 314 ± 80.7 nM | Figure 2c: MST binding curve, Mean ([1]; M -4.60206): 107.845 | Figure 2c: MST binding curve, Mean ([1]; M -4.90309): 92.9206 | Figure 2c: MST binding curve, Mean ([1]; M -5.20412): 96.8426 | Figure 2c: MST binding curve, Mean ([1]; M -5.50515): 85.0858 | Figure 2c: MST binding curve, Mean ([1]; M -5.80618): 74.1558 | Figure 2c: MST binding curve, Mean ([1]; M -6.10721): 60.9811 | Figure 2c: MST binding curve, Mean ([1]; M -6.40824): 46.911 | Figure 2c: MST binding curve, Mean ([1]; M -6.70927): 34.266 | Figure 2c: MST binding curve, Mean ([1]; M -7.31133): -0.7525 | Figure 2c: MST binding curve, Mean ([1]; M -7.61236): 4.6276 | Figure 2c: MST binding curve, Mean ([1]; M -7.91339): 1.8858 | Figure 2c: MST binding curve, Mean ([1]; M -8.21442): 1.3955 | Figure 2c: MST binding curve, Mean ([1]; M -8.51545): 4.478 | Figure 2c: MST binding curve, Mean ([1]; M -8.81648): -6.1144 | Kd (GLUT3 S71A): 1600 ± 400 nM | Affinity of SA47 with GLUT3 S71A (GLUT3 S71A; S71A versus WT): decreased the affinity; also recorded: reduced affinity | SA47 binding to GLUT3 T28A (GLUT3 T28A): abolished the binding | Water solubility (Water solubility): limited
